For this test, the target named is T1, human recombinant P2X7 receptor (Homo sapiens, UniProt Q99572).
T1 construct: expressed in transfected cells
T1 sequence (Q99572 1-595): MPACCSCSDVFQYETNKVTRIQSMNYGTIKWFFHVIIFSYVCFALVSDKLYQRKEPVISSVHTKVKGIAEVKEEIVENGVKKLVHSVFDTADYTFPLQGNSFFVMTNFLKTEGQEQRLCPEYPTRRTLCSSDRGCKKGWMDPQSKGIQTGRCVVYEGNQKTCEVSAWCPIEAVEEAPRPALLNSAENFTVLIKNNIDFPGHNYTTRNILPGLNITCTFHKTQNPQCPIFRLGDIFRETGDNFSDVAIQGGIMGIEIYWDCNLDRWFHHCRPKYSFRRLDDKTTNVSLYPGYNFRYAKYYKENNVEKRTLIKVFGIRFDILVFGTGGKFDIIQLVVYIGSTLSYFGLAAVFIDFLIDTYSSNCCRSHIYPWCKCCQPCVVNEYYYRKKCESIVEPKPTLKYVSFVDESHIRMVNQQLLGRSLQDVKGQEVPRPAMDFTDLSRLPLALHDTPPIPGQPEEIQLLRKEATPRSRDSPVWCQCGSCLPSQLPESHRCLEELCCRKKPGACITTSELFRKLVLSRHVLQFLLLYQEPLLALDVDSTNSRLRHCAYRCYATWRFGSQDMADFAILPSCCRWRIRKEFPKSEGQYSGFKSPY
As to the kind of experiment: YO-PRO assay: P2X7 receptor antagonistic activity in HEK cells stably expressing P2X7. In kind it is cell-based. Particulars: antagonistic activity with respect to the P2X7 receptor, read-out: IC50. In a few lines: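 HEK cells stably transfected with human P2X7 (cloned from blood cDNA) were loaded with 0.5 μM YO-PRO-1. They were exposed to antagonist (10 concentrations, top 10 μM, 1/3 steps, duplicate) together with 250 μM ATP for 90 min, and dye uptake was read by FLIPR at ex 485/em 530. IC50 from maximum fluorescence versus concentration.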
As for `Cc1ncc(C(CNC(=O)c2ccc3[nH]ccc3c2Cl)N2CCS(=O)(=O)CC2)cn1` (racemic) [Example 92, rac-4-Chloro-1H-indole-5-carboxylic acid [2-(1,1-dioxo-thiomorpholin-4-yl)-2-(2-methyl-pyrimidin-5-yl)-ethyl]-amide], the 50% inhibitory concentration (IC50) was 98 nM.

For the compound `Cc1ncc(C(CNC(=O)c2ccc3[nH]ccc3c2Cl)C2CCC(F)(F)CC2)cn1` (racemic) [Example 93, rac-4-Chloro-1H-indole-5-carboxylic acid [2-(4,4-difluoro-cyclohexyl)-2-(2-methyl-pyrimidin-5-yl)-ethyl]-amide], the IC50 came to 12 nM.

Take `Cc1ncc(C(CNC(=O)c2c(Cl)cc3[nH]ccc3c2Cl)N2CCOCC2)cn1` (racemic) [Example 94, rac-4,6-Dichloro-1H-indole-5-carboxylic acid [2-(2-methyl-pyrimidin-5-yl)-2-morpholin-4-yl-ethyl]-amide]: the IC50 is 211 nM.

Consider `Cc1ncc(C(CNC(=O)c2cc(CC(C)C)c3[nH]ccc3c2Cl)N2CCOCC2)cn1` (racemic) [Example 98, rac-4-Chloro-7-isobutyl-1H-indole-5-carboxylic acid [2-(2-methyl-pyrimidin-5-yl)-2-morpholin-4-yl-ethyl]-amide], for which the IC50 is 10 nM.

Regarding `COCCCc1cc(C(=O)NCC(c2cnc(C)nc2)N2CCOCC2)c(Cl)c2cc[nH]c12` (racemic) [Example 99, rac-4-Chloro-7-(3-methoxy-propyl)-1H-indole-5-carboxylic acid [2-(2-methyl-pyrimidin-5-yl)-2-morpholin-4-yl-ethyl]-amide], the concentration for half-maximal inhibition (IC50) was determined as 21 nM.

Regarding `Cc1ncc(C(CNC(=O)c2ccc3[nH]ccc3c2C)N2CCOCC2)cn1` (racemic) [Example 100, rac-4-Methyl-1H-indole-5-carboxylic acid [2-(2-methyl-pyrimidin-5-yl)-2-morpholin-4-yl-ethyl]-amide], the concentration for half-maximal inhibition (IC50) was 19 nM.

Regarding `CCc1c(C(=O)NCC(c2cnc(C)nc2)N2CCOCC2)ccc2[nH]ccc12` (racemic) [Example 101, rac-4-Ethyl-1H-indole-5-carboxylic acid [2-(2-methyl-pyrimidin-5-yl)-2-morpholin-4-yl-ethyl]-amide], the IC50 is 30 nM.

In the case of `CC(=O)c1cc(C(=O)NCC(c2cnc(C)nc2)N2CCOCC2)c(Cl)c2cc[nH]c12` (racemic) [Example 102, rac-7-Acetyl-4-chloro-1H-indole-5-carboxylic acid [2-(2-methyl-pyrimidin-5-yl)-2-morpholin-4-yl-ethyl]-amide], the IC50 is 33 nM.

As for `Cc1ncc(C(CNC(=O)c2cc(C)c3[nH]ccc3c2C(F)(F)F)N2CCOCC2)cn1` (racemic) [Example 103, rac-7-Methyl-4-trifluoromethyl-1H-indole-5-carboxylic acid [2-(2-methyl-pyrimidin-5-yl)-2-morpholin-4-yl-ethyl]-amide], the IC50 was determined as 26 nM.

As for `Cc1ncc(C(CNC(=O)c2cc(C)c3[nH]ccc3c2C)N2CCOCC2)cn1` (racemic) [Example 104, rac-4,7-Dimethyl-1H-indole-5-carboxylic acid [2-(2-methyl-pyrimidin-5-yl)-2-morpholin-4-yl-ethyl]-amide], the IC50 amounted to 35 nM.

`CCc1cc(C(=O)NCC(c2cnc(C)nc2)N2CCOCC2)c(Cl)c2cc[nH]c12` (racemic) [Example 107, rac-4-Chloro-7-ethyl-1H-indole-5-carboxylic acid [2-(2-methyl-pyrimidin-5-yl)-2-morpholin-4-yl-ethyl]-amide]: the IC50 was found to be 15 nM.

For the compound `Cc1ncc(C(CNC(=O)c2cc(Cl)c3[nH]ccc3c2C)N2CCOCC2)cn1` (racemic) [Example 108, rac-7-Chloro-4-methyl-1H-indole-5-carboxylic acid [2-(2-methyl-pyrimidin-5-yl)-2-morpholin-4-yl-ethyl]-amide], the half-inhibitory concentration (IC50) was found to be 11 nM.

As to `COc1cc(C(=O)NCC(c2cnc(C)nc2)N2CCOCC2)c(C)c2cc[nH]c12` (racemic) [Example 109, rac-7-Methoxy-4-methyl-1H-indole-5-carboxylic acid [2-(2-methyl-pyrimidin-5-yl)-2-morpholin-4-yl-ethyl]-amide], the IC50 is 25 nM.

As to `CCOc1cc(C(=O)NCC(c2cnc(C)nc2)N2CCOCC2)c(Cl)c2cc[nH]c12` (racemic) [Example 110, rac-4-Chloro-7-ethoxy-1H-indole-5-carboxylic acid [2-(2-methyl-pyrimidin-5-yl)-2-morpholin-4-yl-ethyl]-amide], the IC50 is 13 nM.

Consider `CCCc1cc(C(=O)NCC(c2cnc(C)nc2)N2CCOCC2)c(Cl)c2cc[nH]c12` (racemic) [Example 111, rac-4-Chloro-7-propyl-1H-indole-5-carboxylic acid [2-(2-methyl-pyrimidin-5-yl)-2-morpholin-4-yl-ethyl]-amide], for which the half-inhibitory concentration (IC50) amounted to 18 nM.

Consider `Cc1ncc(C(CNC(=O)c2cc(OCCOC(C)(C)C)c3[nH]ccc3c2Cl)N2CCOCC2)cn1` (racemic) [Example 112, rac-7-(2-tert-Butoxy-ethoxy)-4-chloro-1H-indole-5-carboxylic acid [2-(2-methyl-pyrimidin-5-yl)-2-morpholin-4-yl-ethyl]-amide], for which the IC50 was 32 nM.

In the case of `Cc1ncc(C(CNC(=O)c2cc(OCCO)c3[nH]ccc3c2Cl)N2CCOCC2)cn1` (racemic) [Example 113, rac-4-Chloro-7-(2-hydroxy-ethoxy)-1H-indole-5-carboxylic acid [2-(2-methyl-pyrimidin-5-yl)-2-morpholin-4-yl-ethyl]-amide], the IC50 amounted to 21 nM.

For the compound `Cc1ncc(C(CNC(=O)c2cc(C(C)(C)O)c3[nH]ccc3c2Cl)N2CCOCC2)cn1` (racemic) [Example 116, rac-4-Chloro-7-(1-hydroxy-1-methyl-ethyl)-1H-indole-5-carboxylic acid [2-(2-methyl-pyrimidin-5-yl)-2-morpholin-4-yl-ethyl]-amide], the IC50 turned out to be 149 nM.

With `Cc1ncc(C(CNC(=O)c2cc(F)c3[nH]ccc3c2F)N2CCOCC2)cn1` (racemic) [Example 117, rac-4,7-Difluoro-1H-indole-5-carboxylic acid [2-(2-methyl-pyrimidin-5-yl)-2-morpholin-4-yl-ethyl]-amide], the half-inhibitory concentration (IC50) worked out at 118 nM.

As for `COc1cc(C(=O)NCC(c2cnc(C)nc2)N2CCOCC2)c(F)c2cc[nH]c12` (racemic) [Example 118, rac-4-Fluoro-7-methoxy-1H-indole-5-carboxylic acid [2-(2-methyl-pyrimidin-5-yl)-2-morpholin-4-yl-ethyl]-amide], the IC50 was 20 nM.

For `Cc1ncc(C(CNC(=O)c2ccc3[nH]ccc3c2Cl)N2CCOCC2)cn1` (single isomer, unassigned) [Example 3, 4-Chloro-1H-indole-5-carboxylic acid [2-(2-methyl-pyrimidin-5-yl)-2-morpholin-4-yl-ethyl]-amide], the IC50 turned out to be 7.9 nM.

For `Cc1ncc(C(CNC(=O)c2ccc3[nH]ccc3c2Cl)N2CCOCC2)cn1` (single isomer, unassigned) [Example 4, 4-Chloro-1H-indole-5-carboxylic acid [2-(2-methyl-pyrimidin-5-yl)-2-morpholin-4-yl-ethyl]-amide], the IC50 is 9.4 nM.

For the compound `Cc1ncc(C(CNC(=O)c2ccc3[nH]ccc3c2Cl)N2CCC(F)(F)CC2)cn1` (single isomer, unassigned) [Example 5, 4-Chloro-1H-indole-5-carboxylic acid [2-(4,4-difluoro-piperidin-1-yl)-2-(2-methyl-pyrimidin-5-yl)-ethyl]-amide], the IC50 came to 7.9 nM.

Take `Cc1ncc(C(CNC(=O)c2ccc3[nH]ccc3c2Cl)N2CCC(F)(F)CC2)cn1` (single isomer, unassigned) [Example 6, 4-Chloro-1H-indole-5-carboxylic acid [2-(4,4-difluoro-piperidin-1-yl)-2-(2-methyl-pyrimidin-5-yl)-ethyl]-amide]: the concentration for half-maximal inhibition (IC50) worked out at 6.8 nM.

As for `Cc1ncc(C(CNC(=O)c2ccc3[nH]ccc3c2Cl)N2CC(C)OC(C)C2)cn1` (single isomer, unassigned) [Example 41, 4-Chloro-1H-indole-5-carboxylic acid [2-(2,6-dimethyl-morpholin-4-yl)-2-(2-methyl-pyrimidin-5-yl)-ethyl]-amide], the IC50 was 651 nM.

`Cc1ncc(C(CNC(=O)c2ccc3[nH]ccc3c2Cl)N2CC(C)OC(C)C2)cn1` (single isomer, unassigned) [Example 42, 4-Chloro-1H-indole-5-carboxylic acid [2-(2,6-dimethyl-morpholin-4-yl)-2-(2-methyl-pyrimidin-5-yl)-ethyl]-amide]: the IC50 came to 36 nM.

`Cc1ncc(C(CNC(=O)c2cc(C)c3[nH]ccc3c2Cl)N2CCOCC2)cn1` (single isomer, unassigned) [Example 96, 4-Chloro-7-methyl-1H-indole-5-carboxylic acid [2-(2-methyl-pyrimidin-5-yl)-2-morpholin-4-yl-ethyl]-amide]: the concentration for half-maximal inhibition (IC50) stood at 9.6 nM.

By IC50 is commonly meant the point on the concentration scale where inhibition reaches its midpoint.

These data come from patent publication US9718774B2, “Indole carboxamide derivatives as P2X7 receptor antagonist” (ACTELION PHARMACEUTICALS LTD, priority 2012, dated 2017).
